{"source": "PubChem BioAssay AID330", "about": "(DTP/NCI, 2004)", "tested_on": "P388 leukemia ip, CD2F1 mice, survival T/C", "assay": "NCI In Vivo Anticancer Drug Screen. Data for tumor model P388 Leukemia (intraperitoneal) in CD2F1 (CDF1) mice", "conditions": "endpoint: median survival time, higher = longer survival", "how_it_was_run": "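Mice carrying the transplanted tumor received test compound or vehicle. Survival was recorded in each group, and the value is the treated-group measurement divided by that of the vehicle-treated control group.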", "key": {"[1]": {"conditions": "dose: 100.0 mg/kg/injection, schedule: Q01DX009 (ip), vehicle: saline with Tween-80"}}, "note": "Inconclusive results and toxic doses are left out."}
{"smiles": "CC(=O)N1C(=O)N(Cl)C(=O)C1(C)c1cccs1", "note": "(stereo not drawn)", "values": [{"measurement": "T/C", "setting": "dose: 100.0 mg/kg/injection, schedule: Q04DX003 (ip), vehicle: saline with Tween-80", "value": "100 % of control"}, {"measurement": "T/C", "setting": "dose: 200.0 mg/kg/injection, schedule: Q04DX003 (ip), vehicle: saline with Tween-80", "value": "95 % of control"}, {"measurement": "T/C", "setting": "dose: 400.0 mg/kg/injection, schedule: Q04DX003 (ip), vehicle: saline with Tween-80", "value": "90 % of control"}]}
{"smiles": "Cc1ccc(C)c(NC(=O)Nc2ccc(CCO)cc2)c1", "values": [{"measurement": "T/C", "setting": "dose: 50.0 mg/kg/injection, schedule: Q01DX009 (ip), vehicle: Klucel (hydroxypropylcellulose) (HPC)", "value": "102 % of control"}, {"measurement": "T/C", "setting": "dose: 100.0 mg/kg/injection, schedule: Q01DX009 (ip), vehicle: Klucel (hydroxypropylcellulose) (HPC)", "value": "102 % of control"}, {"measurement": "T/C", "setting": "dose: 200.0 mg/kg/injection, schedule: Q01DX009 (ip), vehicle: Klucel (hydroxypropylcellulose) (HPC)", "value": "99 % of control"}]}
{"smiles": "CCCCCCCCCCCCCCCC(=O)Nc1cccc2c[n+](CC(=O)c3ccc(NC(=O)CCC(=O)OC)cc3)ccc12", "values": [{"measurement": "T/C", "setting": "dose: 100.0 mg/kg/injection, schedule: Q01DX001 (ip), vehicle: saline with Tween-80", "value": "90 % of control"}, {"measurement": "T/C", "setting": "dose: 200.0 mg/kg/injection, schedule: Q01DX001 (ip), vehicle: saline with Tween-80", "value": "86 % of control"}, {"measurement": "T/C", "setting": "dose: 400.0 mg/kg/injection, schedule: Q01DX001 (ip), vehicle: saline with Tween-80", "value": "109 % of control"}]}
{"smiles": "C[n+]1c(-c2cccc(OCCCCCCCOc3cccc(-c4c5cc(N)ccc5c5ccc(N)cc5[n+]4C)c3)c2)c2cc(N)ccc2c2ccc(N)cc21", "values": [{"measurement": "T/C", "setting": "dose: 0.05 mg/kg/injection, schedule: Q01DX009 (ip), vehicle: water", "value": "123 % of control"}, {"measurement": "T/C", "setting": "dose: 25.0 micrograms/kg/injection, schedule: Q01DX009 (ip), vehicle: water", "value": "103 % of control"}, {"measurement": "T/C", "setting": "dose: 50.0 micrograms/kg/injection, schedule: Q01DX009 (ip), vehicle: water", "value": "118 % of control"}, {"measurement": "T/C", "setting": "dose: 100.0 micrograms/kg/injection, schedule: Q01DX009 (ip), vehicle: water", "value": "120 % of control"}, {"measurement": "T/C", "setting": "dose: 200.0 micrograms/kg/injection, schedule: Q01DX009 (ip), vehicle: water", "value": "100 % of control"}]}
{"smiles": "CCOc1cc(=O)cc2n(-c3cc(OCC)c(OC(C)=O)c(OCC)c3)c3ccccc3nc1-2", "values": [{"measurement": "T/C", "setting": "dose: 50.0 mg/kg/injection, schedule: Q01DX009 (ip), vehicle: suspension in saline", "value": "99 % of control"}, {"measurement": "T/C", "setting": "dose: 100.0 mg/kg/injection, schedule: Q01DX009 (ip), vehicle: suspension in saline", "value": "100 % of control"}, {"measurement": "T/C", "setting": "dose: 200.0 mg/kg/injection, schedule: Q01DX009 (ip), vehicle: suspension in saline", "value": "99 % of control"}]}
{"smiles": "C1CCNCC1.CC(=O)[C-](C(C)=O)c1ccccc1.CC(=O)[C-](C(C)=O)c1ccccc1.CC(=O)[C-](C(C)=O)c1ccccc1.CC(=O)[C-](C(C)=O)c1ccccc1.[Eu+3]", "values": [{"measurement": "T/C", "setting": "dose: 100.0 mg/kg/injection, schedule: Q04DX002 (ip), vehicle: Klucel (hydroxypropylcellulose) (HPC)", "value": "86 % of control"}, {"measurement": "T/C", "setting": "dose: 400.0 mg/kg/injection, schedule: Q04DX002 (ip), vehicle: Klucel (hydroxypropylcellulose) (HPC)", "value": "97 % of control"}]}
{"smiles": "CCN(CC)Cc1cc(C)c(O)c(N=Nc2ccc3c4c(cccc24)-c2ccccc2-3)c1C", "values": [{"measurement": "T/C", "setting": "dose: 50.0 mg/kg/injection, schedule: Q01DX009 (ip), vehicle: saline with Tween-80", "value": "90 % of control"}, {"measurement": "T/C", "setting": "[1]", "value": "93 % of control"}, {"measurement": "T/C", "setting": "dose: 200.0 mg/kg/injection, schedule: Q01DX009 (ip), vehicle: saline with Tween-80", "value": "89 % of control"}]}
{"smiles": "C1#CCCCCCC#CCCCC1", "values": [{"measurement": "T/C", "setting": "dose: 20.0 mg/kg/injection, schedule: Q01DX009 (ip), vehicle: saline with Tween-80", "value": "109 % of control"}, {"measurement": "T/C", "setting": "dose: 30.0 mg/kg/injection, schedule: Q01DX009 (ip), vehicle: saline with Tween-80", "value": "104 % of control"}, {"measurement": "T/C", "setting": "dose: 44.0 mg/kg/injection, schedule: Q01DX009 (ip), vehicle: saline with Tween-80", "value": "100 % of control"}, {"measurement": "T/C", "setting": "dose: 66.0 mg/kg/injection, schedule: Q01DX009 (ip), vehicle: saline with Tween-80", "value": "104 % of control"}, {"measurement": "T/C", "setting": "[1]", "value": "104 % of control"}, {"measurement": "T/C", "setting": "dose: 150.0 mg/kg/injection, schedule: Q01DX009 (ip), vehicle: saline with Tween-80", "value": "109 % of control"}]}
{"smiles": "Nc1cc(C(=O)Nc2ccc(C3=NCCN3)cc2)ccc1C(=O)Nc1ccc(C2=NCCN2)cc1", "values": [{"measurement": "T/C", "setting": "dose: 20.0 mg/kg/injection, schedule: Q04DX003 (ip), vehicle: saline with Tween-80", "value": "168 % of control"}, {"measurement": "T/C", "setting": "dose: 30.0 mg/kg/injection, schedule: Q04DX003 (ip), vehicle: saline with Tween-80", "value": "204 % of control"}, {"measurement": "T/C", "setting": "dose: 44.0 mg/kg/injection, schedule: Q04DX003 (ip), vehicle: saline with Tween-80", "value": "277 % of control"}, {"measurement": "T/C", "setting": "dose: 66.0 mg/kg/injection, schedule: Q04DX003 (ip), vehicle: saline with Tween-80", "value": "181 % of control"}]}
{"smiles": "CSC(SC)=C(C#N)C#N", "values": [{"measurement": "T/C", "setting": "dose: 25.0 mg/kg/injection, schedule: Q04DX003 (ip), vehicle: saline", "value": "104 % of control"}, {"measurement": "T/C", "setting": "dose: 50.0 mg/kg/injection, schedule: Q04DX003 (ip), vehicle: saline", "value": "105 % of control"}, {"measurement": "T/C", "setting": "dose: 100.0 mg/kg/injection, schedule: Q04DX003 (ip), vehicle: saline", "value": "108 % of control"}]}
{"smiles": "Nc1nc2[nH]c(=O)[nH]c(=O)c2[nH]1", "values": [{"measurement": "T/C", "setting": "dose: 50.0 mg/kg/injection, schedule: Q01DX005 (ip), vehicle: saline with Tween-80", "value": "100 % of control"}, {"measurement": "T/C", "setting": "dose: 100.0 mg/kg/injection, schedule: Q01DX005 (ip), vehicle: saline with Tween-80", "value": "102 % of control"}, {"measurement": "T/C", "setting": "dose: 200.0 mg/kg/injection, schedule: Q01DX005 (ip), vehicle: saline with Tween-80", "value": "109 % of control"}]}
